Square brackets hold non-standard residues; d marks the D form. Peptide text beside a SMILES is read from it. * marks the point of attachment. Aoe = N[C@@H](CCCCCC(=O)[C@@H]1CO1)C(=O)O; Sta = CC(C)C[C@H](N)[C@@H](O)CC(=O)O; Isovaleryl = CC(C)CC(=O)*; Nle = CCCC[C@H](N)C(=O)O; Cbz = O=C(OCc1ccccc1)*
How the values were obtained:
HDAC-2 [1] = experiment: HDAC-2 protein levels in HEK293T cells (Westernblot); format: cell-based, human; details: for effect of protease inhibitor on control or VPA-repressed HDAC-2 protein levels: 24 h with or without VPA, FIG. 9A; for effect of proteasome inhibitor on VPA-induced degradation of HDAC-2: co-treatment with VPA, inhibitor added 4 h before harvest, FIG. 9B
Procedure: (§1) FIG. 6: (A) F9 teratocarcinoma or HEK293T embryonic kidney cells were exposed for indicated times to 1 mM VPA. Protein levels of HDAC-2 and HDACs 1 or 3 for reference (HDAC8; N-CoR and Sin3 as data not shown) were determined by Westernblot analysis. […] (C) The effect of other HDAC inhibitors on the amount of HDAC-2 protein was determined by using TSA (100 nM) in a time course analysis in F9 cells (left panel). The HDAC inhibitors TSA (100 nM), trapoxin (TPX, 10 nM), butyrate (1.5 mM) or MS275 (5 μM) were tested at a single time of exposure in HEK293T cells (right panel).
FIG. 9: (A) HEK293T cells were treated for 24 h with VPA or left untreated. The cell penetrating protease inhibitors pepstatin A, leupeptin, or ALLM were added as indicated at the time of VPA addition. (B) Proteasome inhibitors ALLN or MG-132 were added at the indicated concentrations 4 h before cells were harvested. Protein levels of HDAC-2 were determined by Westernblot analysis.

HDAC-2 [2] = experiment: Ubiquitinated proteins in anti HDAC-2 immune precipitates (Westernblot against ubiquitin); format: cell-based; details: VPA 1.5 mM, 24 h; ALLN 5 μM; FIG. 10A
Text: FIG. 10: (A) The total amount of high molecular weight poly-ubiquitinated protein was not altered by VPA treatment of cells (left two lanes). The presence of ubiquitinated proteins in anti HDAC-2 immune precipitates is shown in the right part of the panel. […] Ubiquitinated proteins in the precipitates were detected by Western blot analysis. For lane N a non-immune serum was used instead of the anti HDAC-2 antibody. (B) The presence of mono- and/or oligo-ubiquitinated HDAC-2 upon VPA treatment of HEK293T cells was determined by ectopic expression of His6-tagged ubiquitin followed by VPA-treatment for 36 h as indicated. The proteasome inhibitor MG-132 was added 4 h prior to analysis to enhance the accumulation of ubiquitinated proteins. Electrophoretic mobility and unaltered presence of non-ubiquitinated HDAC-2 were determined by Westernblot analysis of whole cell extracts (left panel). […] Anti-HDAC-2 immuno-reactive bands with the expected mobility of mono- or poly-ubiquitinated HDAC-2 are indicated by a bracket.

RLIM = RLIM protein levels in HEK293T cells (Westernblot); format: cell-based, human; details: 24 hours
Procedure: FIG. 12 (A) RLIM protein levels were determined by Westernblot analysis after treatment of HEK293T cells for 24 hours with the HDAC inhibitors VPA (0.5, 1.5, or 5 mM), TSA (30, 100 or 300 nM) or a combination of VPA (1.5 mM) and TSA (100 nM). Actin protein levels are shown as a control for equal loading. (B) RLIM protein levels were determined by Westernblot analysis after treatment of HEK293T cells for 24 hours with the HDAC inhibitor TSA (100 nM), the proteasome inhibitor ALLN (2.5 μM) or a combination of both. Actin protein levels are shown as a control for equal loading.

[3] = test system: stage III/IV non-small cell lung cancer; details: monotherapy, phase II; cited from earlier work
HDAC-2 [4] = experiment: HDAC-2 protein levels in F9 teratocarcinoma cells (Westernblot); format: cell-based, murine
Procedure: as §1

F9 cells = experiment: Toxicity in F9 cells (cell loss, actin loading control); format: cell-based, murine; details: 48 h TSA (100 nM)
Procedure: as §1

T-cell lymphomas = details: phase II; cited from earlier work
TRAIL = TRAIL expression in spleen after in vivo treatment (RNAse protection assay); parameters: species or system mice; details: leukemic mice; 96 hours of retinoic acid treatment (21-day-release pellet, 5 mg RA); FIG. 4A
Procedure: Leukemic mice or healthy mice (Ctrl) were then treated with placebo (lanes 1, 3), VPA (400 mg/kg every 12 hours), all-trans retinoic acid (a 21-day-release pellet containing 5 mg RA or placebo: lanes 8-9), and VPA plus retinoic acid (lanes 10-11). Mice were sacrificed 18 hours (lanes 4-5), or 36 hours after beginning of treatment (lanes 3, 6-7, 10-11): total RNAs were collected from the spleens (with a >75% invasion of leukemic blasts as assessed by Giemsa staining) and analyzed by RNAse protection assay to check for expression of TRAIL.

HDACs = experiment: Inhibition of HDACs; format: biochemical
PML-RAR leukemia = details: one PML-RAR patient with multiple relapses after retinoic acid; cited from earlier work
[5] = HEK293T cells, VPA 1 mM, TSA 100 nM, trapoxin 10 nM, butyrate 1.5 mM, MS275 5 μM

Chain of HDAC-4 (P56524 whole entry): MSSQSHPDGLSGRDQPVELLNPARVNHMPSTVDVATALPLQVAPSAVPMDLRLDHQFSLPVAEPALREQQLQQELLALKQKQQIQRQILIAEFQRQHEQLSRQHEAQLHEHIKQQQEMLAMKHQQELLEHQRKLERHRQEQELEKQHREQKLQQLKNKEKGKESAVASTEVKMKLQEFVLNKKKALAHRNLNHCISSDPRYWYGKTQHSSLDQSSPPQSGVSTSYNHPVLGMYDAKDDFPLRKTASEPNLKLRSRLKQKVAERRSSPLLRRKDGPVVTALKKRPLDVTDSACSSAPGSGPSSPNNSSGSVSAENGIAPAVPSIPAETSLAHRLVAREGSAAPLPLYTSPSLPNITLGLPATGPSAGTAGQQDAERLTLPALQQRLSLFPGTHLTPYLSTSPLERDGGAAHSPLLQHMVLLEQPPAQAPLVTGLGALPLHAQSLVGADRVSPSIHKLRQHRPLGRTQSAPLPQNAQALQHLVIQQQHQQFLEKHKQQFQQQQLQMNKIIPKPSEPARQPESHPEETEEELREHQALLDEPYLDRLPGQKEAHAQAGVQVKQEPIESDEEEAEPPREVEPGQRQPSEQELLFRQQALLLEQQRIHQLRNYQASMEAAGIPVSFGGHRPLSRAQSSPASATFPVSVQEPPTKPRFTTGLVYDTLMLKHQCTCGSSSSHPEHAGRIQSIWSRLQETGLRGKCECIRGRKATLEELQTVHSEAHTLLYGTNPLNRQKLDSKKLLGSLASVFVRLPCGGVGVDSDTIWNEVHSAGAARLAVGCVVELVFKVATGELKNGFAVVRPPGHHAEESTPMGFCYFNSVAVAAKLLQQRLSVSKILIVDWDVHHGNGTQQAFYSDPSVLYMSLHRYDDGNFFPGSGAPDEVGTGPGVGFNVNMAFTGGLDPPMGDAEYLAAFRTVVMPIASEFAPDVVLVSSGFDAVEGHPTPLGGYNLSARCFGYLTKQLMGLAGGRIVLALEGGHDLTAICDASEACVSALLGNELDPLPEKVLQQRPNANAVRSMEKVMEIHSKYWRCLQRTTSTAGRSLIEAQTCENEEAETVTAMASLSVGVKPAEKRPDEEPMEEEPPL

**Q.** Which “effect of protease inhibitor on control or VPA-repressed HDAC-2 protein levels” value (from here on “effect of protease inhibitor”) (HDAC-2 [1]; HEK293T cells) does the source give for `CSCC[C@@H](C=O)NC(=O)[C@H](CC(C)C)NC(=O)[C@H](CC(C)C)NC(C)=O` [ALLM] (Ac-Leu-Leu-Met-aldehyde) here?
**A.** Neither of the protease inhibitors pepstatin A, leupeptin or ALLM had an effect

**Q.** With `CCCC[C@@H](C=O)NC(=O)[C@H](CC(C)C)NC(=O)[C@H](CC(C)C)NC(C)=O` [ALLN] (Ac-Leu-Leu-[Nle]-aldehyde) as the molecule, how does the “amount of ubiquitinated protein precipitated with antibody against HDAC-2” value (HDAC-2 [2]) read?
**A.** increase the amount of this anti-ubiquitin reactive protein

**Q.** And the “block of TSA-induced proteosomal degradation of RLIM” value (RLIM; TSA 100 nM plus ALLN 2.5 μM, FIG. 12B)?
**A.** can be blocked

**Q.** What about the “effect of proteasome inhibitor on VPA-induced degradation of HDAC-2” value (HDAC-2 [1]; HEK293T cells) of the same molecule?
**A.** abolished VPA-induces degradation of HDAC-2 completely

**Q.** For `CCCC(=O)O` [Butyrate, butyric acid], which HDAC-2 protein levels (HDAC-2 [1]; [5]) is on record?
**A.** Reduction of HDAC-2 protein levels

**Q.** For `CC(C)C[C@@H](C=O)NC(=O)[C@H](CC(C)C)NC(=O)[C@H](CC(C)C)NC(=O)OCc1ccccc1` [MG-132] (Cbz-Leu-Leu-Leu-aldehyde), which “effect of proteasome inhibitor on VPA-induced degradation of HDAC-2” value (HDAC-2 [1]; HEK293T cells) is on record?
**A.** abolished VPA-induces degradation of HDAC-2 completely

**Q.** For `CCCC(=O)OCOC(=O)C(C)(C)C` [Pivanex], which clinical activity [3] is on record?
**A.** demonstrating activity in stage III/IV non-small cell lung cancer

**Q.** With `CC(/C=C/C(=O)NO)=C\[C@@H](C)C(=O)c1ccc(N(C)C)cc1` [TSA, trichostatin A] as the molecule, how does the “amount of ubiquitinated protein precipitated with antibody against HDAC-2” value (HDAC-2 [2]) read?
**A.** no effect

**Q.** What about the “RLIM protein levels / degradation” value (RLIM; VPA 0.5, 1.5 or 5 mM, TSA 30, 100 or 300 nM, FIG. 12) of the same molecule?
**A.** induce an enhanced proteosomal degradation of the E3 ligase RLIM

**Q.** And the HDAC-2 protein levels (HDAC-2 [4])?
**A.** does not reduce HDAC-2 levels

**Q.** What about the HDAC-2 protein levels (HDAC-2 [1]) of the same molecule?
**A.** does not reduce HDAC-2 levels

**Q.** What about the “toxicity (cell loss, reduction in actin loading control)” value (F9 cells) of the same molecule?
**A.** toxic

**Q.** Which clinical outcome (T-cell lymphomas) does the source give for `C/C=C1\NC(=O)[C@H]2CSSCC/C=C/[C@H](CC(=O)N[C@H](C(C)C)C(=O)N2)OC(=O)[C@H](C(C)C)NC1=O` [depsipeptide] here?
**A.** used successfully

**Q.** With `CC(=O)N[C@@H](CC(C)C)C(=O)N[C@@H](CC(C)C)C(=O)N[C@H](C=O)CCCNC(=N)N` [leupeptin] as the molecule, how does the “effect of protease inhibitor” value (HDAC-2 [1]; HEK293T cells) read?
**A.** Neither of the protease inhibitors pepstatin A, leupeptin or ALLM had an effect

**Q.** For `CC(C)CC(=O)N[C@H](C(=O)N[C@H](C(=O)N[C@@H](CC(C)C)[C@@H](O)CC(=O)N[C@@H](C)C(=O)N[C@@H](CC(C)C)[C@@H](O)CC(=O)O)C(C)C)C(C)C` [pepstatin A] (Isovaleryl-VV[Sta]A[Sta]-OH), which “effect of protease inhibitor” value (HDAC-2 [1]; HEK293T cells) is on record?
**A.** Neither of the protease inhibitors pepstatin A, leupeptin or ALLM had an effect

**Q.** For `CC1=C(/C=C/C(C)=C/C=C/C(C)=C/C(=O)O)C(C)(C)CCC1` [retinoic acid, all-trans retinoic acid], which “TRAIL expression in spleen” value (TRAIL) is on record?
**A.** as strongly as upon 96 hours of retinoic acid treatment

**Q.** For `O=C1N[C@@H](Cc2ccccc2)C(=O)N2CCC[C@@H]2C(=O)N[C@@H](CCCCCC(=O)[C@@H]2CO2)C(=O)N[C@H]1Cc1ccccc1` [trapoxin] (cyclo(FF[dP][Aoe])), which HDAC-2 protein levels (HDAC-2 [1]; [5]) is on record?
**A.** Neither the cyclic tetrapeptide HDAC inhibitor trapoxin nor the anilide-based HDAC inhibitor MS-275 induces reduction of HDAC-2 protein levels

**Q.** Which HDAC-2 protein levels (HDAC-2 [1]; cell line and concentration not stated) does the source give for `CCCC(CCC)C(N)=O` [valpromide] here?
**A.** does not affect HDAC-2 protein levels

**Q.** What about the HDAC inhibition (HDACs) of the same molecule?
**A.** does not inhibit HDACs

**Q.** For MS-275, which HDAC-2 protein levels (HDAC-2 [1]; [5]) is on record?
**A.** Neither the cyclic tetrapeptide HDAC inhibitor trapoxin nor the anilide-based HDAC inhibitor MS-275 induces reduction of HDAC-2 protein levels

**Q.** With phenylbutyrate as the molecule, how does the “clinical response of leukemia” value (PML-RAR leukemia) read?
**A.** complete remission of the leukemia

B1: E3 ubiquitin ligase RLIM (protein)
chain: MENSDSNDKGSGDQSAAQRRSQMDRLDREEAFYQFVNNLSEEDYRLMRDNNLLGTPGESTEEELLRRLQQIKEGPPPQNSDENRGGDSSDDVSNGDSIIDWLNSVRQTGNTTRSGQRGNQSWRAVCRTNPNSGNFRFSLEINVYSNNGSQNSENENEPSARRSSGENVENNSQRQVENPRSESTSARPSRSERNSTEALTEVPPTRGQRRARSRSPDHRRTRARAERSRSPLHPMSEIPRRSHHSISSQTFEHPLVNETEGSSRTRHHVTLRQQISGPELLSRGLFAASGTRNASQGAGSSDTAASGESTGSGQRPPTIVLDLQVRRVRPGEYRQRDSIASRTRSRSQTPNNTVTYESERGGFRRTFSRSERAGVRTYVSTIRIPIRRILNTGLSETTSVAIQTMLRQIMTGFGELSYFMYSDSDSEPTGSVSNRNMERAESRSGRGGSGGGSSSGSSSSSSSSSSSSSSSSSSSSPSSSSGGESSETSSDLFEGSNEGSSSSGSSGARREGRHRAPVTFDESGSLPFLSLAQFFLLNEDDDDQPRGLTKEQIDNLAMRSFGENDALKTCSVCITEYTEGNKLRKLPCSHEYHVHCIDRWLSENSTCPICRRAVLASGNRESVV
**Q.** For B1, which “in vitro ubiquitination (Ubc8 as E2, RLIM as E3)” value (HDAC-4) is on record?
**A.** the class II HDAC-4 are substrates for Ubc8/RLIM
